# Source: ChEMBL document CHEMBL4665759, “Discovery of substituted 3H-pyrido[2,3-d]pyrimidin-4-ones as potent, biased, and orally bioavailable sst2 agonist” (Bioorg Med Chem Lett, 2020)
# Experiments:
# [1] = target: Somatostatin receptor type 3 (Homo sapiens, UniProt P32745); test: Agonist activity at human SST3
# [2] = target: Cytochrome P450 2C9 (Homo sapiens, UniProt P11712); test: Inhibition of CYP2C9 (unknown origin); assay type: ADME
# [3] = Volume of distribution at steady state in Sprague-Dawley rat at 5 mg/kg, iv; assay type: ADME, organism-based; details: in vivo, read-out: Vdss
# [4] = Observed clearance in Sprague-Dawley rat at 5 mg/kg, iv; assay type: ADME, organism-based; details: in vivo
# [5] = AUC (0 to infinity) in Sprague-Dawley rat at 10 mg/kg, po; assay type: ADME, organism-based; parameters: time infinity, route oral, dose 10 mg/kg; details: in vivo
# [6] = tested on: Rattus norvegicus; test: Suppression of growth hormone production in GHRH-challenged sc dosed Sprague-Dawley rat plasma administered GHRH at 1 to 8 hrs post dose and measured 5 mins after each GHRH challenge by sandwich ELISA; assay type: functional, organism-based; details: dose mg/kg 0.1-10, time hrs 1-8
# [7] = Half life in Sprague-Dawley rat at 5 mg/kg, iv; assay type: ADME, organism-based; details: in vivo
# [8] = target: Somatostatin receptor type 5 (Homo sapiens, UniProt P35346); test: Agonist activity at human SST5
# Sequence of Somatostatin receptor type 5 (P35346 whole entry): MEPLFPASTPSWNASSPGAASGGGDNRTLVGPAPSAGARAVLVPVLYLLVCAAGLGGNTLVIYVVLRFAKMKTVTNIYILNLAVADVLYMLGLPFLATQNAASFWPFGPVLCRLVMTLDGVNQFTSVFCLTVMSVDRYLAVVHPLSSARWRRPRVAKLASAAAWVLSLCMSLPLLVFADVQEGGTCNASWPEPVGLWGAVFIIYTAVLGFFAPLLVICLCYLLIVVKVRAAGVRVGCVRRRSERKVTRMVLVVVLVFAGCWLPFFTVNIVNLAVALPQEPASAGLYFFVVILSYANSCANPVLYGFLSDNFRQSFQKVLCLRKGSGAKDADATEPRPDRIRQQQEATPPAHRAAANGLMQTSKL
# [9] = Half life in human liver microsomes; assay type: ADME, Microsome
# [10] = Cmax in Sprague-Dawley rat at 10 mg/kg, po; assay type: ADME, organism-based; parameters: route oral, dose 10 mg/kg; details: in vivo
# [11] = target: Cytochrome P450 3A4 (Homo sapiens, UniProt P08684); test: Inhibition of CYP3A4 (unknown origin); assay type: ADME
# Sequence of Cytochrome P450 3A4 (P08684 whole entry): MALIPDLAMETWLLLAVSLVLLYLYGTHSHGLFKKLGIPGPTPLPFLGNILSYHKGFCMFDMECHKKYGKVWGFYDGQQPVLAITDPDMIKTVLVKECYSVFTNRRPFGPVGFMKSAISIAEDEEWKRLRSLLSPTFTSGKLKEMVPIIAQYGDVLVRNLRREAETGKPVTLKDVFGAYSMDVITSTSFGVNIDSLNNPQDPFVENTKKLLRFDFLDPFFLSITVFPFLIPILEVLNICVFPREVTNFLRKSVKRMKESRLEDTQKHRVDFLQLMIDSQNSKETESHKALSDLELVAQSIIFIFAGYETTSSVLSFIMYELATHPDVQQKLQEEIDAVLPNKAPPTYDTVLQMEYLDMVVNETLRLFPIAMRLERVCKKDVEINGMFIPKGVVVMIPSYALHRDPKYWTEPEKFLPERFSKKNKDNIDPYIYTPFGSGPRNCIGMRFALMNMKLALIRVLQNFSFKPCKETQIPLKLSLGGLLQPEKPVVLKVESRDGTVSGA
# [12] = target: Voltage-gated inwardly rectifying potassium channel KCNH2 (Homo sapiens, UniProt Q12809); test: Inhibition of human ERG
# Sequence of Voltage-gated inwardly rectifying potassium channel KCNH2 (Q12809 whole entry): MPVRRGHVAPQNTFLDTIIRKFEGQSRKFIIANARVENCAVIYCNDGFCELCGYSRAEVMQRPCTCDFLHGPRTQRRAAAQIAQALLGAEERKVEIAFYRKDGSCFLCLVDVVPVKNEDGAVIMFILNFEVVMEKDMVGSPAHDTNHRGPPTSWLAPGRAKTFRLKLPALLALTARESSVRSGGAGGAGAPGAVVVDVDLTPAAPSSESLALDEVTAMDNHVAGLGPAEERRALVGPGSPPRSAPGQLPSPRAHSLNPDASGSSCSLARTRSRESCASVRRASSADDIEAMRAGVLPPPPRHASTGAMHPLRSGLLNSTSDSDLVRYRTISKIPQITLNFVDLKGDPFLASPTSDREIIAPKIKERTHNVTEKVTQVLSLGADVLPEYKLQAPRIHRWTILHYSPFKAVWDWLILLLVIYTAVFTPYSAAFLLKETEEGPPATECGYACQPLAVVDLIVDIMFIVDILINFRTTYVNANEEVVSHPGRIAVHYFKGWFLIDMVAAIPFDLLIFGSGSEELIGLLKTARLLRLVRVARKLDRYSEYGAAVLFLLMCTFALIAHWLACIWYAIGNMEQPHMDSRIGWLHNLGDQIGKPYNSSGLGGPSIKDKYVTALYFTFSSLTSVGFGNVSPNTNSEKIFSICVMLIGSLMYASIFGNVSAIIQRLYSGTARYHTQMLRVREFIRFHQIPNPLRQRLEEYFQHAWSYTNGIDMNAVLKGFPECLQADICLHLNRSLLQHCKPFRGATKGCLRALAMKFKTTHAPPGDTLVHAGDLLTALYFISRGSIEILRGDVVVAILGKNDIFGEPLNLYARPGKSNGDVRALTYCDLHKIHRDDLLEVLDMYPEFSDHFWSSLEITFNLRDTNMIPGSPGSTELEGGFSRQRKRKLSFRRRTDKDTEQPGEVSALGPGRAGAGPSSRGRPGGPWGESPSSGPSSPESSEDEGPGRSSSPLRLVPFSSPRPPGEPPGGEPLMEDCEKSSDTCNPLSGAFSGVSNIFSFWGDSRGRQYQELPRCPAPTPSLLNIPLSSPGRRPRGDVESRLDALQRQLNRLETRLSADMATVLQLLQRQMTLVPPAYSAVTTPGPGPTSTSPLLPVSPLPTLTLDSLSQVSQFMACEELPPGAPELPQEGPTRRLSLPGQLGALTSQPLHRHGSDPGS
# [13] = target: Cytochrome P450 2C19 (Homo sapiens, UniProt P33261); test: Inhibition of CYP2C19 (unknown origin); assay type: ADME
# Sequence of Cytochrome P450 2C19 (P33261 whole entry): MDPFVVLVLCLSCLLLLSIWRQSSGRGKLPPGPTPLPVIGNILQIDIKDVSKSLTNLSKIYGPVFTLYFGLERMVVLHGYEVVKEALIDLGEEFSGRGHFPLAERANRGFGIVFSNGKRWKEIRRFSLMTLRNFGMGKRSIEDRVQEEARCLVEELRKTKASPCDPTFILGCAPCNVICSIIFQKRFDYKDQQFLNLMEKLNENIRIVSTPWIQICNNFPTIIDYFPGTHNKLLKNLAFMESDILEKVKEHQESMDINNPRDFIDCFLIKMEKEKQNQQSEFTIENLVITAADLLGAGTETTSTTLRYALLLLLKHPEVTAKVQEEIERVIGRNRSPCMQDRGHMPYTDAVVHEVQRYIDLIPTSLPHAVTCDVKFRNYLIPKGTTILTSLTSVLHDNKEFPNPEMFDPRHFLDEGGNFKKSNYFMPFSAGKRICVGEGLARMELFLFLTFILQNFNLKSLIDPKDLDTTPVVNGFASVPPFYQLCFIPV
# [14] = Half life in rat liver microsomes; assay type: ADME, Microsome
# [15] = target: Somatostatin receptor type 1 (Homo sapiens, UniProt P30872); test: Agonist activity at human SST1
# Sequence of Somatostatin receptor type 1 (P30872 whole entry): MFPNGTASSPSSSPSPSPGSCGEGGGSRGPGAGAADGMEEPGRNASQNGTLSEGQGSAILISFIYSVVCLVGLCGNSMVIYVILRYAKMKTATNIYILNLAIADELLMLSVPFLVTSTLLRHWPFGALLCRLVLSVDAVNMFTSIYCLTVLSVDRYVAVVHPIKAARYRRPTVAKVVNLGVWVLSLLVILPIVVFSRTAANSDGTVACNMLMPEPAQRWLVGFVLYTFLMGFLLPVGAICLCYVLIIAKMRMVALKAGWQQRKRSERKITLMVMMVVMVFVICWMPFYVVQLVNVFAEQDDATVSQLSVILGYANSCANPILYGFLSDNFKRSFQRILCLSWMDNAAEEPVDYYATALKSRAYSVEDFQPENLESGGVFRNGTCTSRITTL
# [16] = Oral bioavailability in Sprague-Dawley rat at 10 mg/kg; assay type: ADME, organism-based; details: in vivo
# Sequence of Cytochrome P450 2C9 (P11712 whole entry): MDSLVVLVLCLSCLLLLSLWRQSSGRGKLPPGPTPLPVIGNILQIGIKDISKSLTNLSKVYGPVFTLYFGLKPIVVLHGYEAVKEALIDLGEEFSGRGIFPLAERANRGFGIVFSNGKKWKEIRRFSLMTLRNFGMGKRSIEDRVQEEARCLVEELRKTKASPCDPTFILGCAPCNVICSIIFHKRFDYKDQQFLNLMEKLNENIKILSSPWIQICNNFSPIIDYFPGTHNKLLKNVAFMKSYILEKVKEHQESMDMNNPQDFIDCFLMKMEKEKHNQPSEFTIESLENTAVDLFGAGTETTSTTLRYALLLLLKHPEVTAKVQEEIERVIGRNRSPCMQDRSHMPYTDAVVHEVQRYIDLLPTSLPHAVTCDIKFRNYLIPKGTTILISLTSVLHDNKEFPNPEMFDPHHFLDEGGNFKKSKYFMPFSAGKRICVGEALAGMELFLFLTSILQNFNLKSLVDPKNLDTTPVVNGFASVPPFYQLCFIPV
# Sequence of Somatostatin receptor type 3 (P32745 whole entry): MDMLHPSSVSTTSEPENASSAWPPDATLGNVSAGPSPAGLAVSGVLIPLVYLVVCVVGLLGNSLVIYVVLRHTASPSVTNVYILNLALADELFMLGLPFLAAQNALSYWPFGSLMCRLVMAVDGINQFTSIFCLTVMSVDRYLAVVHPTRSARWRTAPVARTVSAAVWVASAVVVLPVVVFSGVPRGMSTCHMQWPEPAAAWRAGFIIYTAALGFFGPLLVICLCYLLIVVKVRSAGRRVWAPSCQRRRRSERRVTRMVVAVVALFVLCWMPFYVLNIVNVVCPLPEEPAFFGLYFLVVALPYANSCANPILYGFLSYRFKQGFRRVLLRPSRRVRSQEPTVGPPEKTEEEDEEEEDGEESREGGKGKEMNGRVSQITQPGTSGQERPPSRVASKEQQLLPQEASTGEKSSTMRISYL
smiles,measurement,setting,value
Cc1cc(Cl)cc(-c2cnc3ncn(-c4cc(O)cc(F)c4)c(=O)c3c2CN(C)C[C@@H]2CCCN2)c1,EC50,[1],7.94 nM
same,IC50,[2],> 10000 nM
same,Vd,[3],11.9 L/kg
same,clearance,[4],73 mL/min/kg
same,AUC(0-inf),[5],329 ng·h/mL
same,Activity,[6],Dose-dependent effect
same,half-life,[7],204 min
same,EC50,[8],> 1000 nM
same,half-life,[9],35 min
same,Cmax,[10],43 ng/mL
same,IC50,[11],> 10000 nM
same,IC50,[12],3160 nM
same,IC50,[13],> 10000 nM
same,half-life,[14],23 min
same,EC50,[15],316 nM
same,bioavailability,[16],14%
